According to US11786492B2, “Therapeutic agent for phosphodiesterase inhibition and its related disorders” (Novalead Pharma Inc, priority 2017, dated 2023):
Where two headings read alike, the source gives them in different places.

Experiments:
PDE2A = PDE2A (Homo sapiens, UniProt O00408); assay: Fluorescence polarization assay PDE2A; format: biochemical; conditions: substrate cGMP
Method: (§1) An experiment to check inhibition of various subtypes of the target Phosphodiesterase (PDE) enzyme in in-vitro assay was performed. […] PDE1A, PDE2A, PDE4A, PDE4B, PDE4C, PDE4D, PDE5A, PDE7A, PDE9A, PDE10A.

PDE4B = PDE4B (Homo sapiens, UniProt Q07343); assay: Fluorescence polarization assay PDE4B; format: biochemical; conditions: substrate cAMP
Method: as §1

HaCaT cells [1] = assay: Keratinocyte (HaCaT) proliferation, MTT assay; format: cell-based, human; conditions: for IC50: Homo sapiens, HaCaT, read-out: IC50 of cell proliferation
Method: An experiment to check keratinocyte proliferation inhibitory activity of selected compounds of Formula-I was performed to establish its application in skin disorders related to keratinocyte hyper-proliferation. HaCaT cells, a human immortalized cell line derived from keratinocytes, representing hyper-proliferating keratinocytes was investigated for anti-proliferative potential of the selected compounds by MTT assay.

human PBMCs = assay: Cell viability of human PBMCs, Alamar blue; format: cell-based
Method: (§2) Fresh human blood from healthy volunteer was collected in anticoagulant (5 mM) ethylene diamine tetra acetic acid (EDTA) containing tubes. The growth medium used was RPMI-1640 medium (with 3% FBS) and incubated at 37° C. for 60 mins in a 5% CO2 incubator with vehicle used as 1% DMSO. The cell viability was checked at various time points using Alamar blue and fluorescence readings were taken at excitation of 544 nm and emission of 590 nm.

Human IL-17A = assay: IL-17A release from stimulated PBMCs, ELISA; format: cell-based; conditions: PMA+Ionomycin, 18 hrs
Method: as §2
(§3) PBMCs were stimulated with different stimulators as follows: • a. Cells were exposed to stimulator LPS at 100 ng/mL for 18 hrs to stimulate TNF-α, IL-6, IFN-γ, IL10, IL-1β • b. Cells were exposed to stimulator IFN-γ+LPS at 100 ng/mL+1 μg/mL for 18 hrs to stimulate IL-12 • c. Cells were exposed to stimulator PMA+Ionomycin at 50 ng/mL+1 μg/mL for 18 hrs to stimulate IL-23, IL-22, IL-17A, IL-17F
(§4) After 18 hrs supernatants were collected and centrifuged to remove any cell debris and aliquots were used for ELISA.

Human IL-17F = assay: IL-17F release from stimulated PBMCs, ELISA; format: cell-based; conditions: PMA+Ionomycin, 18 hrs
Method: as §2, §3, §4

Human IL-6 = assay: IL-6 release from stimulated PBMCs, ELISA; format: cell-based; conditions: LPS 100 ng/mL, 18 hrs
Method: as §2, §3, §4

Human IL-10 = assay: IL-10 release from stimulated PBMCs, ELISA; format: cell-based; conditions: LPS 100 ng/mL, 18 hrs
Method: as §2, §3, §4

Human IFN-γ = assay: IFN-γ release from stimulated PBMCs, ELISA; format: cell-based; conditions: LPS 100 ng/mL, 18 hrs
Method: as §2, §3, §4

Human IL-1β = assay: IL-1β release from stimulated PBMCs, ELISA; format: cell-based; conditions: LPS 100 ng/mL, 18 hrs
Method: as §2, §3, §4

HaCaT cells [2] = assay: Cell viability of HaCaT cells, Alamar blue; format: cell-based, human
Method: (§5) HaCaT cells were maintained in T-75 cm2 flask in Dulbecco's modified Eagle medium supplemented with FBS (10%), L-glutamine (2 mM), penicillin (100 ug/ml), streptomycin (100 ug/ml) at 37° C. in 5% CO2 incubator. Cell growth was maintained to 70-80% confluence for seeding and vehicle used was 1% DMSO. The cell viability was checked at various time points using Alamar blue and fluorescence readings were taken at excitation of 544 nm and emission of 590 nm.

TNF-α = TNF-α release from stimulated HaCaT cells, ELISA; format: cell-based, human; conditions: IFN-γ 50 ng/mL, 48 hrs
Method: as §5
(§6) HaCaT cells were stimulated with different stimulators as follows: • a. Cells were exposed to stimulator LPS at 1 μg/mL for 48 hrs to stimulate IL-1β • b. Cells were exposed to stimulator IFN-γ at 50 ng/mL for 48 hrs to stimulate TNF-α, IL-6
(§7) After 48 hrs supernatants were collected and centrifuged to remove any cell debris and aliquots were used for ELISA.

IL-6 = IL-6 release from stimulated HaCaT cells, ELISA; format: cell-based, human; conditions: IFN-γ 50 ng/mL, 48 hrs
Method: as §5, §6, §7

Chain of PDE4B (Q07343 whole entry, species assumed): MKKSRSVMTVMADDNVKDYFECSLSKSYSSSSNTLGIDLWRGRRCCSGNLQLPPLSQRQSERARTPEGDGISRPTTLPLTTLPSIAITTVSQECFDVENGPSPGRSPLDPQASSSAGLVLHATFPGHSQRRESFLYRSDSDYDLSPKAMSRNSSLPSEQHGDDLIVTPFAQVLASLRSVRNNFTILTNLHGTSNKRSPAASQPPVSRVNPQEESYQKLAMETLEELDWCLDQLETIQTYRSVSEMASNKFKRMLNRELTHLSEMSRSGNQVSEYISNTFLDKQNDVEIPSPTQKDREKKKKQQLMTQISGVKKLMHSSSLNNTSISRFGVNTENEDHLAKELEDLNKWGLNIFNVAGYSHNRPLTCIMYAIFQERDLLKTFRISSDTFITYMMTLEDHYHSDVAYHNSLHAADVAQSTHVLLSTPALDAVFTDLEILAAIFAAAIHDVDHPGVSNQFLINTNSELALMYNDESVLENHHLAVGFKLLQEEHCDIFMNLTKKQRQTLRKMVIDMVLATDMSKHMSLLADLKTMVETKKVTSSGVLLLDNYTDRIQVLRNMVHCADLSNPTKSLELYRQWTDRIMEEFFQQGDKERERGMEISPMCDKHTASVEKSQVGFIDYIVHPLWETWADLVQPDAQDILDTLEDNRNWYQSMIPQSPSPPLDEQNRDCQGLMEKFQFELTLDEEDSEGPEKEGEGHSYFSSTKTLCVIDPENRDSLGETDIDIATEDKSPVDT
Chain of PDE2A (O00408 whole entry, species assumed): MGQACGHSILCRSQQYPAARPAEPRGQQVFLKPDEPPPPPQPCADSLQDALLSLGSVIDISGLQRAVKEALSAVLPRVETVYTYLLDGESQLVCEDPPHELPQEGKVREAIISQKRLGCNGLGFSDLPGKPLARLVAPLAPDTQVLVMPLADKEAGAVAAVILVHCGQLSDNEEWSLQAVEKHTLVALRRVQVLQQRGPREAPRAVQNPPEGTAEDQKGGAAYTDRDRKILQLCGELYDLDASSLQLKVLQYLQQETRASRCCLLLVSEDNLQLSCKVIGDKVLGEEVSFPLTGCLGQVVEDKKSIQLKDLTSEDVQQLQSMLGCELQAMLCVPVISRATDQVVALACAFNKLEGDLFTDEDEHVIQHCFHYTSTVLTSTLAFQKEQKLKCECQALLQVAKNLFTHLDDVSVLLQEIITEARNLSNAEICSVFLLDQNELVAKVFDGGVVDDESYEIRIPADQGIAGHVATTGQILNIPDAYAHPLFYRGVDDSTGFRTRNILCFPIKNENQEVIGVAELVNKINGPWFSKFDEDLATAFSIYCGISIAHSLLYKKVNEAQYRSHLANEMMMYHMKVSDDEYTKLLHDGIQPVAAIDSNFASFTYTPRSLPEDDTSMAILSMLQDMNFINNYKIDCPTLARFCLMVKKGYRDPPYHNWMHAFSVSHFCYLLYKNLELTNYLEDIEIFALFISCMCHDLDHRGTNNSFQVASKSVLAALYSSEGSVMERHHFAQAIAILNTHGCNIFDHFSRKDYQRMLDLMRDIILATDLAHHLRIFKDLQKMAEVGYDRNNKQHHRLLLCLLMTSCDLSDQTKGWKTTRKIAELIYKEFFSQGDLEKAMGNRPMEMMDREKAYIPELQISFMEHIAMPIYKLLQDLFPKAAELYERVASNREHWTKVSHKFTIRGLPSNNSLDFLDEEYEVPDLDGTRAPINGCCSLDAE

IC50 (PDE2A): 12 µM | IC50 (PDE4B): > 500 µM
Compound: O=C(Nc1ncc([N+](=O)[O-])s1)c1ccccc1O [Tizoxanide]
Cell proliferation (% of Control) (HaCaT cells [1]; 0.01 μM, 24 h): 98.2 % of Control | Cell proliferation (% of Control) (HaCaT cells [1]; 0.01 μM, 48 h): 109.5 % of Control | Cell proliferation (% of Control) (HaCaT cells [1]; 0.01 μM, 72 h): 87.4 % of Control | Cell proliferation (% of Control) (HaCaT cells [1]; 0.1 μM, 24 h): 93.9 % of Control | Cell proliferation (% of Control) (HaCaT cells [1]; 0.1 μM, 48 h): 120.1 % of Control | Cell proliferation (% of Control) (HaCaT cells [1]; 0.1 μM, 72 h): 82.7 % of Control | Cell proliferation (% of Control) (HaCaT cells [1]; 0.5 μM, 24 h): 93.2 % of Control | Cell proliferation (% of Control) (HaCaT cells [1]; 0.5 μM, 48 h): 108.9 % of Control | Cell proliferation (% of Control) (HaCaT cells [1]; 0.5 μM, 72 h): 87.7 % of Control | Cell proliferation (% of Control) (HaCaT cells [1]; 1 μM, 24 h): 99.7 % of Control | Cell proliferation (% of Control) (HaCaT cells [1]; 1 μM, 48 h): 112.4 % of Control | Cell proliferation (% of Control) (HaCaT cells [1]; 1 μM, 72 h): 81 % of Control | Cell proliferation (% of Control) (HaCaT cells [1]; 5 μM, 24 h): 101.6 % of Control | Cell proliferation (% of Control) (HaCaT cells [1]; 5 μM, 48 h): 89.3 % of Control | Cell proliferation (% of Control) (HaCaT cells [1]; 5 μM, 72 h): 77.9 % of Control | Cell proliferation (% of Control) (HaCaT cells [1]; 10 μM, 24 h): 94.9 % of Control | Cell proliferation (% of Control) (HaCaT cells [1]; 10 μM, 48 h): 74.1 % of Control | Cell proliferation (% of Control) (HaCaT cells [1]; 10 μM, 72 h): 64.3 % of Control | Cell proliferation (% of Control) (HaCaT cells [1]; 50 μM, 24 h): 67.3 % of Control | Cell proliferation (% of Control) (HaCaT cells [1]; 50 μM, 48 h): 59.9 % of Control | Cell proliferation (% of Control) (HaCaT cells [1]; 50 μM, 72 h): 38 % of Control | Cell proliferation (% of Control) (HaCaT cells [1]; 100 μM, 24 h): 53.5 % of Control | Cell proliferation (% of Control) (HaCaT cells [1]; 100 μM, 48 h): 38.6 % of Control | Cell proliferation (% of Control) (HaCaT cells [1]; 100 μM, 72 h): 22.8 % of Control | IC50 (HaCaT cells [1]; 48 h): 59.9 µM | IC50 (HaCaT cells [1]; 72 h): 22.4 µM | % Viability (±S.E.M.) (human PBMCs; 0.01 μM, 24 hrs): 91 ± 3% | % Viability (±S.E.M.) (human PBMCs; 0.01 μM, 48 hrs): 96 ± 3% | % Viability (±S.E.M.) (human PBMCs; 0.01 μM, 72 hrs): 115 ± 1% | % Viability (±S.E.M.) (human PBMCs; 1 μM, 24 hrs): 84 ± 2% | % Viability (±S.E.M.) (human PBMCs; 1 μM, 48 hrs): 101 ± 4% | % Viability (±S.E.M.) (human PBMCs; 1 μM, 72 hrs): 102 ± 3% | % Viability (±S.E.M.) (human PBMCs; 100 μM, 24 hrs): 91 ± 5% | % Viability (±S.E.M.) (human PBMCs; 100 μM, 48 hrs): 64 ± 2% | % Viability (±S.E.M.) (human PBMCs; 100 μM, 72 hrs): 25 ± 2% | Concentration which exhibited cell viability of 70% (human PBMCs; PBMCs, maximum concentration for stimulation study): 50 µM | Human IL-17A concentration (Human IL-17A; 1 μM): 39 pg/mL | Human IL-17A concentration (Human IL-17A; 10 μM): 0 pg/mL | Human IL-17A concentration (Human IL-17A; 25 μM): 0 pg/mL | Human IL-17A concentration (Human IL-17A; 50 μM): 0 pg/mL | Human IL-17F concentration (Human IL-17F; 1 μM): 151 pg/mL | Human IL-17F concentration (Human IL-17F; 10 μM): 0 pg/mL | Human IL-17F concentration (Human IL-17F; 25 μM): 0 pg/mL | Human IL-17F concentration (Human IL-17F; 50 μM): 0 pg/mL | Human IL-6 concentration (Human IL-6; 1 μM): 6122 pg/mL | Human IL-6 concentration (Human IL-6; 10 μM): 5225 pg/mL | Human IL-6 concentration (Human IL-6; 25 μM): 3428 pg/mL | Human IL-6 concentration (Human IL-6; 50 μM): 2086 pg/mL | Human IL-10 concentration (Human IL-10; 1 μM): 1591 pg/mL | Human IL-10 concentration (Human IL-10; 10 μM): 493 pg/mL | Human IL-10 concentration (Human IL-10; 25 μM): 76 pg/mL | Human IL-10 concentration (Human IL-10; 50 μM): 42 pg/mL | Human IFN-γ concentration (Human IFN-γ; 1 μM): 204 pg/mL | Human IFN-γ concentration (Human IFN-γ; 10 μM): 111 pg/mL | Human IFN-γ concentration (Human IFN-γ; 25 μM): 139 pg/mL | Human IFN-γ concentration (Human IFN-γ; 50 μM): 191 pg/mL | Human IL-1β concentration (Human IL-1β; 1 μM): 4577 pg/mL | Human IL-1β concentration (Human IL-1β; 10 μM): 4118 pg/mL | Human IL-1β concentration (Human IL-1β; 25 μM): 4168 pg/mL | Human IL-1β concentration (Human IL-1β; 50 μM): 2522 pg/mL | % Viability (±S.E.M.) (HaCaT cells [2]; 0.1 μM, 24 hrs): 76 ± 6% | % Viability (±S.E.M.) (HaCaT cells [2]; 0.1 μM, 48 hrs): 114 ± 2% | % Viability (±S.E.M.) (HaCaT cells [2]; 0.1 μM, 72 hrs): 112 ± 6% | % Viability (±S.E.M.) (HaCaT cells [2]; 1 μM, 24 hrs): 74 ± 6% | % Viability (±S.E.M.) (HaCaT cells [2]; 1 μM, 48 hrs): 91 ± 5% | % Viability (±S.E.M.) (HaCaT cells [2]; 1 μM, 72 hrs): 91 ± 2% | % Viability (±S.E.M.) (HaCaT cells [2]; 10 μM, 24 hrs): 34 ± 1% | % Viability (±S.E.M.) (HaCaT cells [2]; 10 μM, 48 hrs): 35 ± 0% | % Viability (±S.E.M.) (HaCaT cells [2]; 10 μM, 72 hrs): 43 ± 1% | % Viability (±S.E.M.) (HaCaT cells [2]; 50 μM, 24 hrs): 24 ± 1% | % Viability (±S.E.M.) (HaCaT cells [2]; 50 μM, 48 hrs): 20 ± 0% | % Viability (±S.E.M.) (HaCaT cells [2]; 50 μM, 72 hrs): 25 ± 0% | % Viability (±S.E.M.) (HaCaT cells [2]; 100 μM, 24 hrs): 20 ± 0% | % Viability (±S.E.M.) (HaCaT cells [2]; 100 μM, 48 hrs): 13 ± 0% | % Viability (±S.E.M.) (HaCaT cells [2]; 100 μM, 72 hrs): 20 ± 0% | Concentration which exhibited cell viability of 70% (HaCaT cells [2]; HaCaT cells, maximum concentration for stimulation study): 1 µM | TNF-α Conc. (TNF-α; 0.1 μM): 2.9 ± 0.2 pg/mL | TNF-α Conc. (TNF-α; 0.5 μM): 3.2 ± 0.1 pg/mL | TNF-α Conc. (TNF-α; 1 μM): 2.3 ± 0.5 pg/mL | IL-6 Conc. (IL-6; 0.1 μM): 87 ± 2 pg/mL | IL-6 Conc. (IL-6; 0.5 μM): 80 ± 2 pg/mL | IL-6 Conc. (IL-6; 1 μM): 78 ± 6 pg/mL
